Laboratory results reported in ChEMBL document CHEMBL1201862, “PubChem BioAssay data set” (2004).
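All cell lines were grown in 96-well plates and treated with compound for 48 hours. GI50 is the concentration that inhibits growth by half.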 The source made the active and inactive calls. Rule as the data show it: active = GI50 up to about 1.1 µM and inactive = higher.

Assays:
Assay in all cases: inhibition of tumour cell growth, NCI panel, 48 h
SW-620 = tested on: SW-620
SF-295 = tested on: SF-295
HL-60 = tested on: HL-60
OVCAR-8 = tested on: OVCAR-8
NCI-H226 = tested on: NCI-H226
HCT-15 = tested on: HCT-15
IGROV-1 = tested on: IGROV-1
SK-MEL-2 = tested on: SK-MEL-2
Malme-3M = tested on: Malme-3M
SNB-75 = tested on: SNB-75
MOLT-4 = tested on: MOLT-4
SF-539 = tested on: SF-539
SN12C = tested on: SN12C
OVCAR-5 = tested on: OVCAR-5
UO-31 = tested on: UO-31
SR = tested on: SR

COc1cccc2c1C1(O)C2CCCC12OCCCO2 (centres undefined)
GI50 (SW-620): > 100 µM (inactive) | GI50 (SF-295): > 100 µM (inactive) | GI50 (HL-60): > 100 µM (inactive) | GI50 (OVCAR-8): > 100 µM (inactive) | GI50 (NCI-H226): > 100 µM (inactive) | GI50 (HCT-15): > 100 µM | GI50 (IGROV-1): > 100 µM (inactive) | GI50 (SK-MEL-2): > 100 µM (inactive) | GI50 (Malme-3M): > 100 µM (inactive) | GI50 (SNB-75): > 100 µM (inactive) | GI50 (MOLT-4): > 100 µM (inactive) | GI50 (SF-539): > 100 µM (inactive) | GI50 (SN12C): > 100 µM (inactive) | GI50 (OVCAR-5): > 100 µM (inactive) | GI50 (UO-31): > 100 µM (inactive)

Cc1nc(-n2nc(-c3ccccc3)cc2-c2ccccc2)sc1C(/C=C/c1ccc([N+](=O)[O-])cc1)=N/NC(N)=S
GI50 (SW-620): > 10 µM (inactive) | GI50 (SF-295): 45.8 µM (inactive) | GI50 (HL-60): 4.13 µM (inactive) | GI50 (OVCAR-8): 39.8 µM (inactive) | GI50 (NCI-H226): 22.8 µM (inactive) | GI50 (HCT-15): 28.4 µM | GI50 (IGROV-1): 35.2 µM (inactive) | GI50 (SK-MEL-2): 33.9 µM (inactive) | GI50 (Malme-3M): > 100 µM (inactive) | GI50 (SNB-75): 20.8 µM (inactive) | GI50 (MOLT-4): 13.6 µM (inactive) | GI50 (SF-539): 28 µM (inactive) | GI50 (SN12C): > 100 µM (inactive) | GI50 (OVCAR-5): 83.6 µM (inactive) | GI50 (UO-31): 7.41 µM (inactive)

Cc1cccc(/C=N/N=C(\N)NO)n1
GI50 (SW-620): 74.5 µM (inactive) | GI50 (SF-295): 22.8 µM (inactive) | GI50 (HL-60): 32.4 µM (inactive) | GI50 (OVCAR-8): 58.7 µM (inactive) | GI50 (HCT-15): > 10 µM | GI50 (IGROV-1): 7.26 µM (inactive) | GI50 (SR): 42.4 µM (inactive) | GI50 (SK-MEL-2): 50 µM (inactive) | GI50 (Malme-3M): > 100 µM (inactive) | GI50 (SNB-75): 20.5 µM (inactive) | GI50 (MOLT-4): 51.4 µM (inactive) | GI50 (SF-539): 26.7 µM (inactive) | GI50 (SN12C): > 100 µM (inactive)

Nc1ccccc1/C(O)=C1/CCOC1=O
GI50 (SW-620): > 100 µM (inactive) | GI50 (SF-295): > 100 µM (inactive) | GI50 (HL-60): > 100 µM (inactive) | GI50 (OVCAR-8): > 100 µM (inactive) | GI50 (NCI-H226): > 100 µM (inactive) | GI50 (IGROV-1): > 100 µM (inactive) | GI50 (SR): > 100 µM (inactive) | GI50 (SK-MEL-2): > 100 µM (inactive) | GI50 (Malme-3M): > 100 µM (inactive) | GI50 (SNB-75): > 100 µM (inactive) | GI50 (MOLT-4): > 100 µM (inactive) | GI50 (SN12C): > 100 µM (inactive) | GI50 (OVCAR-5): > 100 µM (inactive) | GI50 (UO-31): > 100 µM (inactive)

COC(=O)C1Cc2c(n(C)c3ccccc23)C(CCC(=O)O)N1Cc1ccccc1 (centres undefined)
GI50 (SW-620): 40.4 µM (inactive) | GI50 (SF-295): 31 µM (inactive) | GI50 (HL-60): 34.4 µM (inactive) | GI50 (OVCAR-8): 39.4 µM (inactive) | GI50 (NCI-H226): 21.7 µM (inactive) | GI50 (HCT-15): 27.7 µM | GI50 (IGROV-1): 40.6 µM (inactive) | GI50 (SK-MEL-2): > 100 µM (inactive) | GI50 (Malme-3M): > 100 µM (inactive) | GI50 (SNB-75): 32.5 µM (inactive) | GI50 (MOLT-4): 27.5 µM (inactive) | GI50 (SF-539): 22.4 µM (inactive) | GI50 (SN12C): 38.5 µM (inactive) | GI50 (OVCAR-5): 79.3 µM (inactive) | GI50 (UO-31): 21.2 µM (inactive)

O=[N+]([O-])C=C1c2ccccc2-c2ccccc21
GI50 (SW-620): 16.4 µM (inactive) | GI50 (SF-295): 19 µM (inactive) | GI50 (HL-60): 4.01 µM (inactive) | GI50 (OVCAR-8): 16.4 µM (inactive) | GI50 (NCI-H226): > 10 µM (inactive) | GI50 (HCT-15): 19.1 µM | GI50 (IGROV-1): > 10 µM (inactive) | GI50 (SR): 4.65 µM (inactive) | GI50 (SK-MEL-2): 21.6 µM (inactive) | GI50 (SNB-75): 25.4 µM (inactive) | GI50 (MOLT-4): 3.7 µM (inactive) | GI50 (SF-539): 17.5 µM (inactive) | GI50 (SN12C): 18.9 µM (inactive) | GI50 (OVCAR-5): 17.4 µM (inactive) | GI50 (UO-31): 15.2 µM (inactive)

O=C(CCCC(=O)Nc1ccc(Cl)cc1Cl)CC(=O)c1ccc2ccccc2c1
GI50 (SW-620): > 100 µM (inactive) | GI50 (SF-295): > 100 µM (inactive) | GI50 (HL-60): > 100 µM (inactive) | GI50 (OVCAR-8): > 100 µM (inactive) | GI50 (NCI-H226): > 100 µM (inactive) | GI50 (HCT-15): > 100 µM | GI50 (IGROV-1): > 100 µM (inactive) | GI50 (SK-MEL-2): > 100 µM (inactive) | GI50 (Malme-3M): > 100 µM (inactive) | GI50 (MOLT-4): > 100 µM (inactive) | GI50 (SF-539): > 100 µM (inactive) | GI50 (SN12C): > 100 µM (inactive) | GI50 (OVCAR-5): > 100 µM (inactive) | GI50 (UO-31): > 100 µM (inactive)

Oc1ncnc2c1nnn2CCCn1nnc2c(O)ncnc21
GI50 (SW-620): > 100 µM (inactive) | GI50 (SF-295): > 100 µM (inactive) | GI50 (HL-60): > 100 µM (inactive) | GI50 (OVCAR-8): > 100 µM (inactive) | GI50 (NCI-H226): > 100 µM (inactive) | GI50 (HCT-15): > 100 µM | GI50 (IGROV-1): > 100 µM (inactive) | GI50 (SR): > 100 µM (inactive) | GI50 (SK-MEL-2): > 100 µM (inactive) | GI50 (MOLT-4): > 100 µM (inactive) | GI50 (SF-539): > 100 µM (inactive) | GI50 (SN12C): > 100 µM (inactive) | GI50 (OVCAR-5): > 100 µM (inactive) | GI50 (UO-31): > 100 µM (inactive)

O=C(CCCCCCCCCCc1ccccc1)C1=C(O)CCCC1=O
GI50 (SW-620): 37.8 µM (inactive) | GI50 (SF-295): 22.8 µM (inactive) | GI50 (HL-60): 14.3 µM (inactive) | GI50 (OVCAR-8): 24.4 µM (inactive) | GI50 (NCI-H226): 26.1 µM (inactive) | GI50 (IGROV-1): 35.4 µM (inactive) | GI50 (SR): 23.8 µM (inactive) | GI50 (SK-MEL-2): 23 µM (inactive) | GI50 (SNB-75): 32.6 µM (inactive) | GI50 (MOLT-4): 30.3 µM (inactive) | GI50 (SF-539): 41.9 µM (inactive) | GI50 (SN12C): 35.2 µM (inactive) | GI50 (OVCAR-5): 33.3 µM (inactive) | GI50 (UO-31): 22 µM (inactive)

Cc1cc(-c2ccccc2)nc(Nc2cc3ccccc3[nH]2)n1
GI50 (SW-620): > 100 µM (inactive) | GI50 (SF-295): > 100 µM (inactive) | GI50 (HL-60): > 100 µM (inactive) | GI50 (OVCAR-8): > 100 µM (inactive) | GI50 (NCI-H226): > 100 µM (inactive) | GI50 (HCT-15): > 100 µM | GI50 (IGROV-1): > 100 µM (inactive) | GI50 (SR): > 100 µM (inactive) | GI50 (SK-MEL-2): > 100 µM (inactive) | GI50 (Malme-3M): > 100 µM (inactive) | GI50 (MOLT-4): > 100 µM (inactive) | GI50 (SF-539): > 100 µM (inactive) | GI50 (SN12C): > 100 µM (inactive) | GI50 (OVCAR-5): > 100 µM (inactive) | GI50 (UO-31): > 100 µM (inactive)

N=C(c1ccccc1)N(O)C1CCCCC1
GI50 (SW-620): > 100 µM (inactive) | GI50 (SF-295): > 100 µM (inactive) | GI50 (HL-60): > 100 µM (inactive) | GI50 (OVCAR-8): > 100 µM (inactive) | GI50 (NCI-H226): > 100 µM (inactive) | GI50 (SR): > 100 µM (inactive) | GI50 (SK-MEL-2): > 100 µM (inactive) | GI50 (Malme-3M): 9.38 µM (inactive) | GI50 (SNB-75): 81.3 µM (inactive) | GI50 (SF-539): > 100 µM (inactive) | GI50 (SN12C): > 100 µM (inactive) | GI50 (OVCAR-5): > 100 µM (inactive) | GI50 (UO-31): > 100 µM (inactive)

CN(/N=C\c1ccnc2ccccc12)c1ccc([N+](=O)[O-])cc1
GI50 (SW-620): 65 µM (inactive) | GI50 (SF-295): 75.2 µM (inactive) | GI50 (HL-60): 37.1 µM (inactive) | GI50 (OVCAR-8): 95.7 µM (inactive) | GI50 (NCI-H226): > 100 µM (inactive) | GI50 (HCT-15): > 100 µM | GI50 (IGROV-1): > 100 µM (inactive) | GI50 (SK-MEL-2): > 100 µM (inactive) | GI50 (Malme-3M): > 100 µM (inactive) | GI50 (SNB-75): > 100 µM (inactive) | GI50 (MOLT-4): > 100 µM (inactive) | GI50 (SF-539): 27 µM (inactive) | GI50 (SN12C): > 100 µM (inactive) | GI50 (OVCAR-5): > 100 µM (inactive)

COc1ccc(Cc2cc3c(cc2OCC(=O)O)OCO3)cc1
GI50 (SW-620): > 100 µM (inactive) | GI50 (SF-295): > 100 µM (inactive) | GI50 (HL-60): > 100 µM (inactive) | GI50 (OVCAR-8): > 100 µM (inactive) | GI50 (IGROV-1): > 100 µM (inactive) | GI50 (SR): > 100 µM (inactive) | GI50 (SK-MEL-2): > 100 µM (inactive) | GI50 (Malme-3M): > 100 µM (inactive) | GI50 (MOLT-4): > 100 µM (inactive) | GI50 (SF-539): > 100 µM (inactive) | GI50 (SN12C): > 100 µM (inactive) | GI50 (OVCAR-5): > 100 µM (inactive) | GI50 (UO-31): > 100 µM (inactive)

COC(=O)c1c(C(=O)OC)c(-c2ccccc2)n(-c2ccccc2)c(=O)c1-c1ccccc1
GI50 (SW-620): > 100 µM (inactive) | GI50 (SF-295): 36.9 µM (inactive) | GI50 (HL-60): > 100 µM (inactive) | GI50 (OVCAR-8): 51.4 µM (inactive) | GI50 (NCI-H226): > 100 µM (inactive) | GI50 (HCT-15): > 100 µM | GI50 (IGROV-1): > 100 µM (inactive) | GI50 (SR): > 100 µM (inactive) | GI50 (Malme-3M): 61.2 µM (inactive) | GI50 (SNB-75): 27.2 µM (inactive) | GI50 (MOLT-4): > 100 µM (inactive) | GI50 (SF-539): 17.7 µM (inactive) | GI50 (SN12C): > 100 µM (inactive) | GI50 (OVCAR-5): > 100 µM (inactive) | GI50 (UO-31): 59.7 µM (inactive)
